# Test results published in US5512471A, “Process for purifying an α-D-galactosidase isozyme from Coffea beans” (The Curators of the University of Missouri, priority 1992, dated 1996).
# System: α-D-galactosidase isozyme
# Experiment: Substrate specificity with PNP and 4-MU conjugates
# Type: biochemical, Coffea canephora
# Conditions: 4-MU substrates, pH 6.0; % of activity on 4-MU-α-D-galactopyranoside
# Description: Analytical procedures: Protein concentration was quantitated by the method of Bradford using bovine serum albumin (BSA) as a standard (9). […] One unit of activity was defined as 1.0 μmole of substrate hydrolyzed per minute.
row,RELATIVE ACTIVITY [%],Structure (SMILES)
1,< 0.01,CC(=O)NC1C(O)CC(Oc2ccc3c(C)cc(=O)oc3c2)(C(=O)O)OC1C(O)C(O)CO (stereo not drawn) [4-MU-N-acetyl-α-neuraminic acid]
2,100.00,Cc1cc(=O)oc2cc(O[C@H]3O[C@H](CO)[C@H](O)[C@H](O)[C@H]3O)ccc12 [4-MU-α-D-galactopyranoside]

# Same assay, conditions: PNP conjugates 2.5 mM, pH 6.0; % of activity on PNP-α-D-galactopyranoside
row,Structure (SMILES),RELATIVE ACTIVITY [%]
1,CC(=O)N[C@H]1[C@@H](Oc2ccc([N+](=O)[O-])cc2)O[C@H](CO)[C@H](O)[C@@H]1O [PNP-N-acetyl-α-D-galactosaminide],< 0.06
2,CC(=O)N[C@H]1[C@@H](Oc2ccc([N+](=O)[O-])cc2)O[C@H](CO)[C@@H](O)[C@@H]1O [PNP-N-acetyl-α-D-glucosaminide],< 0.06
3,CC(=O)N[C@H]1[C@H](Oc2ccc([N+](=O)[O-])cc2)O[C@H](CO)[C@H](O)[C@@H]1O [PNP-N-acetyl-β-D-galactosaminide],< 0.06
4,CC(=O)N[C@H]1[C@H](Oc2ccc([N+](=O)[O-])cc2)O[C@H](CO)[C@@H](O)[C@@H]1O [PNP-N-acetyl-β-D-glucosaminide],< 0.06

# Further lines, results first:
row,RELATIVE ACTIVITY [%],Structure (SMILES)
1,100.00,O=[N+]([O-])c1ccc(O[C@H]2O[C@H](CO)[C@H](O)[C@H](O)[C@H]2O)cc1 [PNP-α-D-galactopyranoside]
2,< 0.06,O=[N+]([O-])c1ccc(O[C@H]2O[C@H](CO)[C@@H](O)[C@H](O)[C@H]2O)cc1 [PNP-α-D-glucopyranoside]
3,< 0.06,O=[N+]([O-])c1ccc(O[C@@H]2OC[C@H](O)[C@H](O)[C@H]2O)cc1 [PNP-α-L-arabinopyranoside]
4,< 0.06,C[C@@H]1O[C@@H](Oc2ccc([N+](=O)[O-])cc2)[C@@H](O)[C@H](O)[C@@H]1O [PNP-α-L-fucopyranoside]
5,< 0.06,O=[N+]([O-])c1ccc(O[C@@H]2O[C@H](CO)[C@H](O)[C@H](O)[C@H]2O)cc1 [PNP-β-D-galactopyranoside]
6,< 0.06,O=[N+]([O-])c1ccc(O[C@@H]2O[C@H](CO)[C@@H](O)[C@H](O)[C@H]2O)cc1 [PNP-β-D-glucopyranoside]
7,< 0.06,C[C@@H]1O[C@H](Oc2ccc([N+](=O)[O-])cc2)[C@@H](O)[C@H](O)[C@@H]1O [PNP-β-L-fucopyranoside]

# System: α-D-galactosidase isozyme
# Experiment: Km determination by varying the substrate concentration
# Type: biochemical, Coffea canephora
# Conditions: 50 mM Na citrate + 1 mg/ml BSA, pH 6.0; mean, S.D.=0.09, N=3
# Method: The pH optimum was determined by incubating aliquots of the enzyme in 40 mM Na citrate +40 mN Na H2 PO4 +1 mg/ml BSA+2.5 mM PNP-α-D-galactopyranoside, pH =2.0 to 8.0. The ionic strength optimum was determined by incubating aliquots of the enzyme in 5.0 mM Na citrate +1 mg/ml BSA +2.5 mM PNP α-D-galactopyranoside +0 to 1.0M Na Cl, pH =6.0. The Km for PNP-α-D-galactopyranoside was determined by varying the substrate concentration in 50 mM Na citrate +1 mg/ml BSA, pH =6.0. The native molecular weight of the isozyme was determined by applying a concentrated portion of the enzyme to a 1.5×45 cm Sephacryl S-200 column equilibrated in 25 mM Na citrate +200 mM NaCl, pH=6.0.
row,Km [µM],Structure (SMILES)
1,260,O=[N+]([O-])c1ccc(O[C@H]2O[C@H](CO)[C@H](O)[C@H](O)[C@H]2O)cc1 [PNP-α-D-galactopyranoside]
